Source: US4908351A, “Antibiotic a 42867 derivative” (Merrell Dow Pharmaceuticals Inc., priority 1988, dated 1990)

Key:
Assay in all cases: MIC, broth dilution test
Assay type in all cases: cell-based
[1] = system: Staph. aureus L 165; conditions: Isosensitest broth, 24 h, 37° C.
Protocol: Culture media and growth conditions for MIC (minimal inhibitory concentration) determinations were as follows: Isosensitest broth (Oxoid), 24 h, for staphylococci, Strep. faecalis and Gram-negative bacteria (Escherichia coli); Todd-Hewitt broth (Difco), 24 h for other streptococcal species; GC base broth (Difco) +1% Isovitalex (BBL), 48 h, CO2 -enriched atmosphere for Neisseria gonorrhoeae; Brain Heart broth (Difco) +1% Supplement C (Difco), 48 h for Haemophilus influenzae. PPLO broth with supplements as in R. T. Evans and D. Taylor-Robinson (J. Antimicrob. Chemother. 4, 57), 24 h for U. urealyticum. Incubation was at 37° C. […] The minimal inhibitory concentrations (MIC, microgram/ml) for some microorganisms are reported below in Table I.

[2] = system: Strep. mitis L 796 (clinical isolate); conditions: Todd-Hewitt broth, 24 h, 37° C.
Protocol: (§1) Culture media and growth conditions for MIC (minimal inhibitory concentration) determinations were as follows: Isosensitest broth (Oxoid), 24 h, for staphylococci, Strep. faecalis and Gram-negative bacteria (Escherichia coli); Todd-Hewitt broth (Difco), 24 h for other streptococcal species; GC base broth (Difco) +1% Isovitalex (BBL), 48 h, CO2 -enriched atmosphere for Neisseria gonorrhoeae; Brain Heart broth (Difco) +1% Supplement C (Difco), 48 h for Haemophilus influenzae. PPLO broth with supplements as in R. T. Evans and D. Taylor-Robinson (J. Antimicrob. Chemother. 4, 57), 24 h for U. urealyticum. Incubation was at 37° C. Inocula were as follows: about 10^4 color-changing units/ml for U. urealyticum; about 10^4 -10^5 colony-forming units/ml for other broth dilution MICs. The minimal inhibitory concentrations (MIC, microgram/ml) for some microorganisms are reported below in Table I.

[3] = system: Strep. pneumoniae L 44 UC 41; conditions: Todd-Hewitt broth, 24 h, 37° C.
Protocol: as §1

[4] = system: Haemophilus influenzae type b L 970 ATCC 19418; conditions: Brain Heart broth +1% Supplement C, 48 h, 37° C.
Protocol: as §1

[5] = system: Staph. haemolyticus clin isolate; conditions: Isosensitest broth, 24 h, 37° C.
Protocol: as §1

[6] = system: Ureaplasma urealyticum 1479 clin. isolate; conditions: PPLO broth with supplements, 24 h, about 10^4 color-changing units/ml, 37° C.
Protocol: as §1

[7] = system: Neisseria gonorrhoeae L 997 ISM 68/126; conditions: GC base broth +1% Isovitalex, 48 h, CO2-enriched atmosphere, 37° C.
Protocol: as §1

[8] = system: Escherichia coli L 47 SKF 12140; conditions: Isosensitest broth, 24 h, 37° C.
Protocol: as §1

[9] = system: Staph. epidermidis L 147 ATCC 12228 (coagulase negative); conditions: Isosensitest broth, 24 h, 37° C.
Protocol: as §1

[10] = system: Strep. pyogenes L 49 C 203; conditions: Todd-Hewitt broth, 24 h, 37° C.
Protocol: as §1

[11] = system: Strep. faecalis L 149 ATCC 7080; conditions: Isosensitest broth, 24 h, 37° C.
Protocol: as §1

In the case of antibiotic A 42867 pseudoaglycon, the M.I.C. ([1]; Staph. aureus 10^6 cfu/ml) is reported as 1 microgram/ml, the M.I.C. ([1]; Staph. aureus 30% bovine serum) is reported as 2 microgram/ml and the M.I.C. ([1]; Staph. aureus L 165, 10^4 cfu/ml) is reported as 1 microgram/ml. It also gave a M.I.C. [2] of 0.5 microgram/ml, a M.I.C. [3] of 1 microgram/ml and a M.I.C. [4] of over 128 microgram/ml. For the same substance, the M.I.C. [5] was 2 microgram/ml, the M.I.C. [6] was over 128 microgram/ml and the M.I.C. [7] was 64 microgram/ml. The M.I.C. [8] was over 128 microgram/ml, the M.I.C. [9] was 2 microgram/ml and the M.I.C. [10] was 0.5 microgram/ml. It also gave a M.I.C. [11] of 2 microgram/ml.
